In brackets after ≈: the same amount, converted by molar mass.
Tests used:
[1] = system: E. coli ATCC 25922; test: Photodynamic minimal inhibitory concentration (PD-MIC); type: cell-based; details: Escherichia coli
Description: (§1) The microorganism used for this study is E. coli ATCC 25922. Stock cultures were preserved at −70° C. using glycerol 10% (v/v) as the cryoprotectant, and the strain was grown in Luria Bertania broth (LB). Bacterial culture was prepared inoculating a single colony from a pure culture. After overnight incubation at 37° C. for 18 h, the culture reached a density of approximately 1×10^9 CFU/mL and it was diluted to 10^6 CFU/mL.
We carried out PDI in vitro studies with E. coli. Cells (10^6 CFU/mL) were incubated with 2-fold diluted solutions of compounds 7 and 9 (activated form of 7) in buffer PBS and LB at a proportion of 70:30% (v/v), to obtain concentrations between 40-0.078 μM. Stock solutions of BODIPY 7 and 9 (400 μM) were prepared in acetonitrile. […] PD-MIC was 40 μM for compounds 7 and 9 in dark conditions. Under light irradiation the PD-MIC was 40 μM and 10 μM for 7 and 9 respectively.

[2] = system: E. coli ATCC 25922; test: Antibacterial photodynamic inactivation, regular vs hydrogen peroxide stressed bacteria (CFU counts); type: cell-based
Description: as §1
At the end of the irradiation time, 100 μL aliquots were placed in 96 wells from each tube and serially diluted 10-fold in PBS to obtain dilutions of 10^1 to 10^4 fold, in addition to the original concentration, on agar plates to determine CFU. Viability counts were performed at 0 and 1 hour in either dark or light conditions from each dilution, 10 μL aliquots were plated on LB agar. Plates were streaked in triplicate and incubated for 18 h at 37° C. Each experiment was performed at least three times on different days.
To stress the cells we utilized hydrogen peroxide, known to stimulate ROS production in Gram-negative cells.^79,80 We incubated bacteria from the E. coli strain (10^6 colony forming units (CFU)/mL) with 500 nM hydrogen peroxide for 2 hours at 37° C. Following precipitation and resuspension of this bacteria in media with no H2O2, we added compound 7. In parallel, compound 7 was also added to bacteria that were not exposed to H2O2.

With `CC1=C(Br)C(C)=[N+]2C1=C(CC1(C)CCc3c(C)c(O)c(C)c(C)c3O1)c1c(C)c(Br)c(C)n1[B-]2(F)F` (stereo not drawn) [Compound 7, 8-((6-Hydroxy-2,5,7,8-tetramethylchroman-2-yl)-methyl)-2,6-dibromo-1,3,5,7-tetramethyl] the MIC ([1]; ATCC25922, light or radiation study, under light irradiation) was 40 µM (≈ 25 µg/mL), the MIC ([1]; ATCC25922, dark conditions) was 40 µM (≈ 25 µg/mL) and the “colony forming units after irradiation, stressed cells” value ([2]; E. coli incubated with 500 nM hydrogen peroxide 2 h, 1 h irradiation 2.6 mW/cm^2, 520 nm) was “drastic drop in colony forming units”. For the same compound, the MIC ([2]; Escherichia coli, ATCC25922, 7 activated in the stressed bacterial suspension (500 nM hydrogen peroxide), 9 pre-activated with dicumyl peroxide, 1 hour, read-out: PD-MIC) was 10 µM (≈ 6.24 µg/mL), the “colony forming units, dark controls” value ([2]; in the dark, 7 with or without H2O2) was “no effect in the CFU” and the “colony forming units after irradiation, non-stressed cells” value ([2]; no H2O2, 1 h irradiation 2.6 mW/cm^2, 520 nm) was “No inactivation was observed”.
